How the values were obtained:
[1] = test system: HEK293 cells overexpressing APOL1 G2; assay: APOL1 G2 HEK293 cell rescue assay (reversal of cell death caused by overexpression of APOL1); assay type: cell-based; conditions: Homo sapiens, HEK293, HEK293 overexpressing APOL1 G2; geometric mean of at least 2 assay runs; † = single assay run
Method in brief: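 EC50 is the half-maximal effective concentration for reversing cell death driven by APOL1 G2 overexpression in HEK293 cells. Reported as geometric mean of at least 2 runs on separate days, each run averaging duplicate wells per plate; some values from a single run.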

[2] = target: T1, APOL1 G2 (Homo sapiens, UniProt O14791, DEL388-389); assay: APOL1-mediated calcium transport (calcium influx) assay, HEK T-REx/GCaMP6f/APOL1 G2 K6.3 cells, FLIPR TETRA; assay type: cell-based; conditions: prevention of calcium influx; geometric mean of at least 2 assay runs; † = average of a technical replicate from a single assay run
T1 construct: expressed in transfected cells; host or cells: HEK293 T-REx clonal line stably expressing GCaMP6f (HEK T-REx/GCaMP6f/APOL1 G2 K6.3), doxycycline induced
T1 sequence (O14791 with tags, fused parts or gaps DEL388-389): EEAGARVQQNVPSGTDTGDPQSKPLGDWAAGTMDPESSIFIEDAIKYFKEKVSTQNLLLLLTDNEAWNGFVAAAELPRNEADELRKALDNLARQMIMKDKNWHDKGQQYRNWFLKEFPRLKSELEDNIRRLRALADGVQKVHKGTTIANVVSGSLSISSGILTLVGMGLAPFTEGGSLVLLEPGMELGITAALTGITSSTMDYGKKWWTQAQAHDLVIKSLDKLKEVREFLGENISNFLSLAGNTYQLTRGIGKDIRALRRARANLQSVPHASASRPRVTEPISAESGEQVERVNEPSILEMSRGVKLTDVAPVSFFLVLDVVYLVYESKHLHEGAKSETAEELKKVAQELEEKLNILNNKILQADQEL
Method in brief: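 A HEK293 T-REx clone stably expressing GCaMP6f had APOL1 G2 induced with doxycycline (20 ng/mL solution added) for 6 h. Cells were then washed into Ca2+-free Tyrode's buffer (pH 7.4) and preincubated with compounds (duplicate 8-point) for 10 min at room temperature. Ca2+ injection to 5 mM final produced FLIPR GCaMP fluorescence, giving AC50 for influx inhibition (geometric mean, ≥2 runs).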

CC(c1c(F)cc(OCCN2CCC3(CC2)C(=O)Nc2ccc(C#N)cc23)cc1F)S(C)(=O)=O (single isomer, unassigned) [Compound 138, (S) or (R)-1′-{2-[3,5-difluoro-4-(1-methanesulfonylethyl)phenoxy]ethyl}-2-oxo-1,2-dihydrospiro[indole-3,4′-piperidine]-5-carbonitrile]
EC50 [1]: 78.2 nM
AC50 [2]: 1220 nM

O=C1Nc2ccc(Cl)cc2C12CCN(CCOc1ccc3c(cnn3C3COC3)c1)CC2 [Compound 15, 5-chloro-1′-(2-{[1-(oxetan-3-yl)-1H-indazol-5-yl]oxy}ethyl)-1,2-dihydrospiro[indole-3,4′-piperidin]-2-one]
EC50 [1]: 124 nM
AC50 [2]: 654 nM

CN=S(C)(=O)c1ccc(OCCN2CCC3(CC2)C(=O)Nc2ccc(Cl)cc23)cc1 (single isomer, unassigned) [Compound 148, (S) or (R)-5-chloro-1′-(2-{4-[methyl(methylimino)oxo-λ^6-sulfanyl]phenoxy}ethyl)-1,2-dihydrospiro[indole-3,4′-piperidin]-2-one]
EC50 [1]: 107 nM
AC50 [2]: 960 nM

CC(c1c(F)cc(OCCN2CCC3(CC2)C(=O)Nc2ccc(Cl)cc23)cc1F)S(C)(=O)=O (single isomer, unassigned) [Compound 142, (S) or (R)-5-chloro-1′-{2-[3,5-difluoro-4-(1-methanesulfonylethyl)phenoxy]ethyl}-1,2-dihydrospiro[indole-3,4′-piperidin]-2-one]
EC50 [1]: 48.3 nM
AC50 [2]: 845 nM

CS(=O)(=O)c1ccc(OCCN2CCC3(CC2)C(=O)Nc2ccc(Cl)cc23)cc1C(F)(F)F [Compound 108, 5-chloro-1′-{2-[4-methanesulfonyl-3-(trifluoromethyl)phenoxy]ethyl}-1,2-dihydrospiro[indole-3,4′-piperidin]-2-one]
EC50 [1]: 16.9 nM
AC50 [2]: 860 nM
